In patent US20240109900A1, “AZABICYCLIC SHP2 INHIBITORS” (IRBM S.P.A., priority 2021, published 2024):
Like-named read-outs stand apart in the source and are kept apart here.

Legend:
[1] = target: SHP-2 enzyme (Met1-Leu525) (Homo sapiens (Human), UniProt Q06124); assay: SHP2 inhibition enzymatic assay; format: biochemical; details: 75 μM DiFMUP substrate
Procedure, shortened: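 SHP-2 (Met1-Leu525), 0.5 nM, activated with 500 nM IRS1 bis-phosphopeptide, preincubated 30 min with compounds in HEPES pH 7.2 buffer with 5 mM DTT. 75 μM DiFMUP added for 30 min at room temperature, stopped with bpV; fluorescence read. IC50 from four-parameter logistic fit of % inhibition.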

[2] = tested on: ERK phosphorylation in KYSE-520 cells; assay: Phospho-ERK cellular assay; format: cell-based; details: read-out: PERK IC50
Procedure, shortened: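 TR-FRET read-out of ERK1/2 Thr202/Tyr204 phosphorylation was taken after overnight antibody incubation at room temperature. Before that, KYSE-520 cells were treated 2 h at 37 °C with compound dilutions and lysed 30 min. Percent inhibition relative to vehicle and cell-free wells was fitted four-parametrically to give IC50.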

[3] = 0.5 nM SHP-2 activated by 500 nM IRS1 peptide, read-out: SHP2wt-IC50
[4] = Homo sapiens, KYSE-520, 2 h, KYSE-520 cells, 2 h at 37° C., phospho-ERK1/2 (Thr202/Tyr204) TR-FRET
[5] = KYSE-520 cells, 2 h at 37° C., phospho-ERK1/2 (Thr202/Tyr204) TR-FRET

SHP-2 enzyme (Met1-Leu525), sequence (Q06124 1-525): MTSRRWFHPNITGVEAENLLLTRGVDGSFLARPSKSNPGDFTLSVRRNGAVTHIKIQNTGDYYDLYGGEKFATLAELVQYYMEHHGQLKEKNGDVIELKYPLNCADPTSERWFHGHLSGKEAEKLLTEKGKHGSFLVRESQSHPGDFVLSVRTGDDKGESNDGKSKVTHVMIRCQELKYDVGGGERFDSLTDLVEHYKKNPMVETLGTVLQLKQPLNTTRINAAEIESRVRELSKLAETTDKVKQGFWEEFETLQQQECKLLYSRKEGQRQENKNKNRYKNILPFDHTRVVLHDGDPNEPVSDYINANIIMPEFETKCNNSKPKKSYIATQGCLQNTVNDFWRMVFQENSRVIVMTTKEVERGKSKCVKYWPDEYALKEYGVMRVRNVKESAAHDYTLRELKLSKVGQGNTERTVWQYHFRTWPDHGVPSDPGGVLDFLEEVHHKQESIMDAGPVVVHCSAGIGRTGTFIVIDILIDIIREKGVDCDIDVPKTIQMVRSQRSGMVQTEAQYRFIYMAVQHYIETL

SMILES	IC50 [1, 3]	IC50 [2, 4]	IC50 [2, 5]	IC50 ([1]; SHP2wt-IC50, 0.5 nM SHP-2 activated by 500 nM IRS1 peptide)	IC50 ([2]; Homo sapiens, KYSE-520, 2 h)
Cc1csc(C2(CN)C3CCN(c4nc5nc(Sc6cccnc6C(F)(F)F)cnc5[nH]4)CC32)n1 (centres unmarked) [Example 67, (7-(4-methylthiazol-2-yl)-3-(5-((2-(trifluoromethyl)pyridin-3-yl)thio)-1H-imidazo[4,5-b]pyrazin-2-yl)-3-azabicyclo[4.1.0]heptan-7-yl)methanamine]	< 0.5 µM	< 1 µM			
Cc1csc([C@@]2(CN)[C@@H]3CN(c4cnc5c(-c6ccc7nn(C8CC8)cc7c6Cl)n[nH]c5n4)C[C@@H]32)n1 [Example 528]	< 0.5 µM		< 1 µM		
Cn1cc2c(Cl)c(-c3c[nH]c4nc(N5CC[C@@H]6[C@H](C5)[C@@]6(CN)c5ccccc5F)n(C)c(=O)c34)ccc2n1 [Example 378, 2-((1S,6R,7R)-7-(aminomethyl)-7-(2-fluorophenyl)-3-azabicyclo[4.1.0]heptan-3-yl)-5-(4-chloro-2-methyl-2H-indazol-5-yl)-3-methyl-3,7-dihydro-4H-pyrrolo[2,3-d]pyrimidin-4-one]	< 0.5 µM	< 1 µM			
Cc1csc([C@@]2(CN)[C@@H]3CN(c4cnc(Sc5ccn6cc(C(=O)N(C)C)nc6c5Cl)cn4)C[C@@H]32)n1 [Example 447, 7-((5-((1R,5S,6r)-6-(aminomethyl)-6-(4-methylthiazol-2-yl)-3-azabicyclo[3.1.0]hexan-3-yl)pyrazin-2-yl)thio)-8-chloro-N,N-dimethylimidazo[1,2-a]pyridine-2-carboxamide]	< 0.5 µM	< 1 µM			
NC[C@]1(c2ccccc2F)[C@@H]2CCN(c3cnc4c(-c5ccc(C(=O)O)cc5Cl)n[nH]c4n3)C[C@@H]21 [Example 271, 4-(6-((1S,6R,7R)-7-(aminomethyl)-7-(2-fluorophenyl)-3-azabicyclo[4.1.0]heptan-3-yl)-1H-pyrazolo[3,4-b]pyrazin-3-yl)-3-chlorobenzoic acid]	< 0.5 µM	> 5 µM			
Cc1c(-c2n[nH]c3nc(N4CC[C@@H]5[C@H](C4)[C@@]5(CN)c4ncccc4F)cnc23)ccc2nn(C)cc12 [Example 179, ((1S,6R,7S)-3-(3-(2,4-dimethyl-2H-indazol-5-yl)-1H-pyrazolo[3,4-b]pyrazin-6-yl)-7-(3-fluoropyridin-2-yl)-3-azabicyclo[4.1.0]heptan-7-yl)methanamine]	< 0.5 µM	< 1 µM			
NC[C@]1(c2ccccc2F)[C@@H]2CCN(c3cnc4c(-c5cc(F)cc(F)c5)n[nH]c4n3)C[C@@H]21 [Example 330, ((1S,6R,7R)-3-(3-(3,5-difluorophenyl)-1H-pyrazolo[3,4-b]pyrazin-6-yl)-7-(2-fluorophenyl)-3-azabicyclo[4.1.0]heptan-7-yl)methanamine]	< 0.5 µM	< 1 µM			
CNc1nccc(-c2n[nH]c3nc(N4CCC5C(C4)C5(CN)c4cc(C)on4)cnc23)c1Cl (centres unmarked) [Example 17, 4-(6-(7-(aminomethyl)-7-(5-methylisoxazol-3-yl)-3-azabicyclo[4.1.0]heptan-3-yl)-1H-pyrazolo[3,4-b]pyrazin-3-yl)-3-chloro-N-methylpyridin-2-amine]	< 0.5 µM	< 1 µM			
CNC(=O)c1ccc(-c2n[nH]c3nc(N4CC[C@@H]5[C@H](C4)[C@@]5(CN)c4cccc(F)c4F)cnc23)c2cccnc12 [Example 267, 5-(6-((1S,6R,7R)-7-(aminomethyl)-7-(2,3-difluorophenyl)-3-azabicyclo[4.1.0]heptan-3-yl)-1H-pyrazolo[3,4-b]pyrazin-3-yl)-N-methylquinoline-8-carboxamide]	< 0.5 µM	< 1 µM			
Cc1csc(C2(CN)C3CCN(c4cnc5c(-c6cccc(Cl)c6Cl)n[nH]c5n4)CC32)n1 (centres unmarked) [Example 77, (3-(3-(2,3-dichlorophenyl)-1H-pyrazolo[3,4-b]pyrazin-6-yl)-7-(4-methylthiazol-2-yl)-3-azabicyclo[4.1.0]heptan-7-yl)methanamine]	< 0.5 µM	< 1 µM			
NC[C@]1(c2ccccc2F)[C@@H]2CCN(c3nccn4c(-c5cccc(Cl)c5Cl)ncc34)C[C@@H]21 [Example 416, ((1S,6R,7R)-3-(3-(2,3-dichlorophenyl)imidazo[1,5-a]pyrazin-8-yl)-7-(2-fluorophenyl)-3-azabicyclo[4.1.0]heptan-7-yl)methanamine]	< 0.5 µM	> 5 µM			
Cc1c(-c2c[nH]c3nc(N4CC[C@@H]5[C@H](C4)[C@@]5(CN)c4ccccc4F)cnc23)ccc2nn(C)cc12 [Example 157, ((1S,6R,7R)-3-(7-(2,4-dimethyl-2H-indazol-5-yl)-5H-pyrrolo[2,3-b]pyrazin-3-yl)-7-(2-fluorophenyl)-3-azabicyclo[4.1.0]heptan-7-yl)methanamine]	< 0.5 µM	< 1 µM			
Cc1c(-c2n[nH]c3nc(N4CC[C@@H]5[C@H](C4)[C@@]5(CN)c4ccccc4F)cnc23)ccc2nn(C)cc12 [Example 145, ((1S,6R,7R)-3-(3-(2,4-dimethyl-2H-indazol-5-yl)-1H-pyrazolo[3,4-b]pyrazin-6-yl)-7-(2-fluorophenyl)-3-azabicyclo[4.1.0]heptan-7-yl)methanamine]	< 0.5 µM	< 1 µM			
NCC1(c2ccccc2)C2CCN(c3cnc4c(-c5cccc(Cl)c5Cl)n[nH]c4n3)CC21 (centres unmarked) [Example 80, (3-(3-(2,3-dichlorophenyl)-1H-pyrazolo[3,4-b]pyrazin-6-yl)-7-phenyl-3-azabicyclo[4.1.0]heptan-7-yl)methanamine]	< 0.5 µM	< 1 µM			
NC[C@]1(c2ccccc2F)[C@@H]2CCN(c3cnc4c(-c5ccc6nn(C7CC7)cc6c5Cl)n[nH]c4n3)C[C@@H]21 [Example 420]	< 0.5 µM		< 1 µM		
Cc1csc(C2(CN)C3CCN(c4cnc5c(-c6ccc(OS(=O)(=O)F)c(Cl)c6Cl)n[nH]c5n4)CC32)n1 (centres unmarked) [Example 450, 4-(6-(7-(aminomethyl)-7-(4-methylthiazol-2-yl)-3-azabicyclo[4.1.0]heptan-3-yl)-1H-pyrazolo[3,4-b]pyrazin-3-yl)-2,3-dichlorophenyl sulfurofluoridate]				< 0.5 µM	< 1 µM
Cn1cc2c(Cl)c(-c3n[nH]c4nc(N5CC[C@@H]6[C@H](C5)[C@@]6(CN)c5cc(F)ccc5F)cnc34)ccc2n1 [Example 369, ((1S,6R,7R)-3-(3-(4-chloro-2-methyl-2H-indazol-5-yl)-1H-pyrazolo[3,4-b]pyrazin-6-yl)-7-(2,5-difluorophenyl)-3-azabicyclo[4.1.0]heptan-7-yl)methanamine]	< 0.5 µM	< 1 µM			
NC[C@]1(c2ccccc2F)[C@@H]2CCN(c3cnc4c(-c5cccc6[nH]c(=O)ccc56)n[nH]c4n3)C[C@@H]21 [Example 210, 5-(6-((1S,6R,7R)-7-(aminomethyl)-7-(2-fluorophenyl)-3-azabicyclo[4.1.0]heptan-3-yl)-1H-pyrazolo[3,4-b]pyrazin-3-yl)quinolin-2(1H)-one]	< 0.5 µM	< 1 µM			
NC[C@]1(c2ccccc2F)[C@@H]2CCN(c3cnc4c(-c5ccnc(-n6cccn6)c5Cl)n[nH]c4n3)C[C@@H]21 [Example 451, ((1S,6R,7R)-3-(3-(3-chloro-2-(1H-pyrazol-1-yl)pyridin-4-yl)-1H-pyrazolo[3,4-b]pyrazin-6-yl)-7-(2-fluorophenyl)-3-azabicyclo[4.1.0]heptan-7-yl)methanamine]	< 0.5 µM	< 1 µM			
